pIC50: −log10 of the molar value. Where a name gives a salt, the structure may show the parent alone.
Columns and labels:
Assay type in all cases: biochemical
Aurora1 = biological target: T1, Aurora1 (Homo sapiens, UniProt Q96GD4); assay: Aurora1 enzymatic test, NuMA phosphorylation with [33P]ATP, Flashplate; conditions: Aurora-B/INCENP-C3 recombinant complex, 1 μM ATP
T1 construct: His tag (N); made in house
In short: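 Recombinant His-tagged Aurora-B/INCENP-C3 complex (10 nM) phosphorylates 500 nM His-NuMA fragment with 1 µM ATP plus [33P]ATP, 30 minutes at 37° C in Tris pH 7.5 with 5 mM MgCl2, on nickel-chelate Flashplates. Incorporated 33P counted; percent inhibition versus enzyme control after no-enzyme background subtraction.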

Tie2 = biological target: T2, Tie2 (Homo sapiens, UniProt Q02763); assay: Tie2 kinase test, phosphorylation of PLC with GST-Tie2; conditions: GST-Tie2 intracellular domain 776-1124
T2 construct: amino acids of the intracellular domain 776-1124; made in house; host or cells: baculovirus expression (pFastBacGT vector)
T2 sequence (Q02763 776-1124): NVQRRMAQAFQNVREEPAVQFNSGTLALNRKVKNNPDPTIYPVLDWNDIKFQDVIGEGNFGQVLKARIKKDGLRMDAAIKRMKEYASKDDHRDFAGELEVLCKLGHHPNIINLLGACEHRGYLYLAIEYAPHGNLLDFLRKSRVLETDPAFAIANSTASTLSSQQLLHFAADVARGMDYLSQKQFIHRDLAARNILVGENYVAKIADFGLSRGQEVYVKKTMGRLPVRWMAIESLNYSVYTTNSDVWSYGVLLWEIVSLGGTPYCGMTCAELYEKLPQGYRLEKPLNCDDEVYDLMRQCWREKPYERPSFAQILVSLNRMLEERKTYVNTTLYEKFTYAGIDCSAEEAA

CDK2/cycline E = biological target: T3, CDK2/cycline E (Homo sapiens, UniProt P24941); assay: CDK2/cyclineE Flashplate test in 96-well format; conditions: CDK2/cycline E complex, 1 μM ATP
T3 construct: made in house; host or cells: Sf21 insect cells (baculovirus coinfection)
In short: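 Recombinant human CDK2/cyclin E (His-tagged cyclin E, coexpressed in Sf21 cells), 20 nM, phosphorylates biotinylated pRb peptide (10 μM) with 1 μM ATP plus [γ-33P]ATP in HEPES pH 7.5, MgCl2, DTT at 30 °C. Inhibitors tested at 10 μM down to 0.014 μM; 33P incorporation read by scintillation on streptavidin plates.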

Aurora2 = biological target: T4, Aurora2 (Homo sapiens, UniProt O14965); assay: Aurora2 enzymatic test, NuMA phosphorylation with [33P]ATP, Flashplate; conditions: whole recombinant protein, 1 μM ATP
T4 construct: Aurora2: whole recombinant protein comprising an N-terminal histidine tail; His tag (N); made in house; host or cells: E. coli
T4 sequence (O14965 1-403): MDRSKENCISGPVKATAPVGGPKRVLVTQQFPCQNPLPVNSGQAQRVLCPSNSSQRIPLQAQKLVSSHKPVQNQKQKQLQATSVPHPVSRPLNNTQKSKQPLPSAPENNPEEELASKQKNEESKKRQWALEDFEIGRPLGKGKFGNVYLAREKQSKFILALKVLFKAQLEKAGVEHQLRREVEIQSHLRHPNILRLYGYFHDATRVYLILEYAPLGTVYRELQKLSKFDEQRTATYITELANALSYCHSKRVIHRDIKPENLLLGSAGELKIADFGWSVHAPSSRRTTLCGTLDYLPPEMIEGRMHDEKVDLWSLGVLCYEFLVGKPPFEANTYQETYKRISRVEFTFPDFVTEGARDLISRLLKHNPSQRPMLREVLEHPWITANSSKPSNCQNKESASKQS
In short: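 Full-length His-tagged Aurora2 (E. coli, >82% pure) at 10 nM phosphorylated 500 nM His-NuMA fragment on Ni-chelate Flashplates. Conditions were pH 7.5 Tris buffer with 10 mM MgCl2, 1 μM ATP plus [33P]ATP, 30 min at 37 °C.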

T1 sequence (Q96GD4 whole entry, species assumed): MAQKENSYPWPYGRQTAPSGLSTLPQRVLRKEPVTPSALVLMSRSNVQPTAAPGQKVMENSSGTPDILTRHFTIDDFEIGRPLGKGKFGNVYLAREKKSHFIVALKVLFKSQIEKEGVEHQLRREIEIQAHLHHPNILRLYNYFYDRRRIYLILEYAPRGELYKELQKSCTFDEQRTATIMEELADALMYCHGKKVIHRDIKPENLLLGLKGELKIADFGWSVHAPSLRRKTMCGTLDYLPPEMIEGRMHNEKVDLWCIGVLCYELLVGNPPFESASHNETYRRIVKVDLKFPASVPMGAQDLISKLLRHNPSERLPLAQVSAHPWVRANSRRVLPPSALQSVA
T1 sequence (Q9NQS7 835-903 partner limits assumed, species assumed): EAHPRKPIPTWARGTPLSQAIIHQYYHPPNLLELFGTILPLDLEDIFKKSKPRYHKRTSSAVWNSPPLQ

Row | pIC50 (Aurora1) | pIC50 (Tie2) | pIC50 (CDK2/cycline E) | pIC50 (Aurora2) | Structure (SMILES)
1 | 6.52 | 6.05 | 6.62 | 7.59 | CN(NC(=O)c1cc2c(NC(=O)c3ccc(CN4CCC4)cc3)n[nH]c2s1)c1ccccc1 [Example 19, 4-azetidin-1-ylmethyl-N-[5-(N′-methyl-N′-phenylhydrazinocarbonyl)-1H-thieno[2,3-c]pyrazol-3-yl]benzamide]
2 | 6.59 | 6.27 | 6.86 | 7.00 | CCN(CC)CCNCc1ccc(C(=O)Nc2n[nH]c3sc(C(=O)NN(C)c4ccc(Cl)cc4)cc23)cc1 [Example 23b, N-{5-[N′-(4-chlorophenyl)-N′-methylhydrazinocarbonyl]-1H-thieno[2,3-c]pyrazol-3-yl}-4-[(2-diethylaminoethylamino)methyl]benzamide]
3 | 8.05 | 7.04 | 7.01 | 8.05 | COc1ccc(C(=O)Nc2n[nH]c3sc(C(=O)NN(C)c4ccccc4)cc23)cc1 [Example 2]
4 | 6.99 | 6.44 | 7.04 | 7.34 | CN1CCN(Cc2ccc(C(=O)Nc3n[nH]c4sc(C(=O)NN(C)c5ccccc5)cc34)cc2)CC1 [Example 10, N-[5-(N′-methyl-N′-phenylhydrazinocarbonyl)-1H-thieno[2,3-c]pyrazol-3-yl]-4-(4-methylpiperazin-1-ylmethyl)benzamide]
5 | 7.23 | 6.32 | 6.76 | 8.15 | CN(NC(=O)c1cc2c(NC(=O)c3ccc(CN4CCCCC4)cc3)n[nH]c2s1)c1ccccc1 [Example 17a, N-[5-(N′-methyl-N′-phenylhydrazinocarbonyl)-1H-thieno[2,3-c]pyrazol-3-yl]-4-piperidin-1-ylmethylbenzamide]
6 | 7.26 | 6.37 | 6.91 | 7.85 | CN(NC(=O)c1cc2c(NC(=O)c3ccc(CN4CCCOCC4)cc3)n[nH]c2s1)c1ccccc1 [Example 21a, N-[5-(N′-methyl-N′-phenylhydrazinocarbonyl)-1H-thieno[2,3-c]pyrazol-3-yl]-4-perhydro-1,4-oxazepin-4-ylmethylbenzamide]
7 | 8.22 | 6.94 | 6.29 | 7.55 | COc1ccc(C(=O)Nc2n[nH]c3sc(C(=O)NN(Cc4ccccc4)c4ccccc4)cc23)cc1 [Example 4, N-[5-(N′-benzyl-N′-phenylhydrazinocarbonyl)-1H-thieno[2,3-c]pyrazol-3-yl]-4-methoxybenzamide]
8 | 6.81 | 6.43 | 6.96 | 7.12 | CN(C)CCN(C)Cc1ccc(C(=O)Nc2n[nH]c3sc(C(=O)NN(C)c4ccc(Cl)cc4)cc23)cc1 [Example 20b, N-{5-[N′-(4-chlorophenyl)-N′-methylhydrazinocarbonyl]-1H-thieno[2,3-c]pyrazol-3-yl}-4-{[(2-dimethylaminoethyl)methylamino]methyl}benzamide]
9 | 8.22 | 6.97 | 6.88 | 8.70 | CN1CCN(c2ccc(C(=O)Nc3n[nH]c4sc(C(=O)NN(C)c5ccc(Cl)cc5)cc34)cc2)CC1 [Example 28, N-{5-[N′-(4-chlorophenyl)-N′-methylhydrazinocarbonyl]-1H-thieno[2,3-c]pyrazol-3-yl}-4-(4-methylpiperazin-1-yl)benzamide]
10 | 7.51 | 6.72 | 6.33 | 7.35 | COc1ccc(C(=O)Nc2n[nH]c3sc(C(=O)NNC4CCCCC4)cc23)cc1 [Example 3, N-[5-(N′-cyclohexylhydrazinocarbonyl)-1H-thieno-[2,3-c]pyrazol-3-yl]-4-methoxybenzamide]
11 | 7.48 | 7.12 | 6.18 | 7.55 | CCc1ccccc1NNC(=O)c1cc2c(NC(=O)c3ccc(OC)cc3)n[nH]c2s1 [Example 5, N-{5-[N′-(2-ethylphenyl)hydrazinocarbonyl]-1H-thieno[2,3-c]pyrazol-3-yl}-4-methoxybenzamide]
12 | 6.67 | 6.15 | 7.11 | 7.14 | CC1CN(Cc2ccc(C(=O)Nc3n[nH]c4sc(C(=O)NN(C)c5ccc(Cl)cc5)cc34)cc2)CC(C)N1 (stereo not shown) [Example 11b, 4-(3,5-dimethylpiperazin-1-ylmethyl)-N-[5-(N′-(4-chlorophenyl)-N′-methylhydrazinocarbonyl)-1H-thieno[2,3-c]pyrazol-3-yl]-benzamide]
13 | 6.75 | 6.28 | 6.81 | 7.51 | CC1CN(Cc2ccc(C(=O)Nc3n[nH]c4sc(C(=O)NN(C)c5ccccc5)cc34)cc2)CC(C)N1 (stereo not shown) [Example 11a, 4-(3,5-dimethylpiperazin-1-ylmethyl)-N-[5-(N′-methyl-N′-phenylhydrazinocarbonyl)-1H-thieno[2,3-c]pyrazol-3-yl]benzamide]
14 | 6.94 | 6.21 | 6.68 | 7.92 | CCN(CC)Cc1ccc(C(=O)Nc2n[nH]c3sc(C(=O)NN(C)c4ccccc4)cc23)cc1 [Example 15a, 4-diethylaminomethyl-N-[5-(N′-methyl-N′-phenylhydrazinocarbonyl)-1H-thieno[2,3-c]pyrazol-3-yl]benzamide trifluoroacetate]
15 | 6.48 | 6.41 | 7.09 | 7.43 | CCN(CC)Cc1ccc(C(=O)Nc2n[nH]c3sc(C(=O)NN(C)c4ccc(Cl)cc4)cc23)cc1 [Example 15b, N-{5-[N′-(4-chlorophenyl)-N′-methylhydrazinocarbonyl]-1H-thieno[2,3-c]pyrazol-3-yl}-4-diethylaminomethylbenzamide]
16 | 7.68 | 6.97 | 6.70 | 8.22 | CN1CCCN(c2ccc(C(=O)Nc3n[nH]c4sc(C(=O)NN(C)c5ccccc5)cc34)cn2)CC1 [Example 44, 6-(4-methyl[1,4]diazepan-1-yl)-N-[5-(N′-methyl-N′-phenylhydrazinocarbonyl)-1H-thieno[2,3-c]pyrazol-3-yl]nicotinamide]
17 | 7.85 | 6.64 | 6.24 | 7.70 | COc1ccc(C(=O)Nc2n[nH]c3sc(C(=O)NNc4ccccc4F)cc23)cc1 [Example 6, N-{5-[N′-(2-fluorophenyl)hydrazinocarbonyl]-1H-thieno[2,3-c]pyrazol-3-yl}-4-methoxybenzamide]
18 | 7.48 | 7.54 | 6.84 | 7.68 | CN1CCN(c2ccc(C(=O)Nc3n[nH]c4sc(C(=O)N/N=C\c5ccccc5)cc34)cc2)CC1 [Example 45, N-[5-(benzylidenehydrazinocarbonyl)-1H-thieno-[2,3-c]pyrazol-3-yl]-4-(4-methylpiperazin-1-yl)benzamide]
19 | 6.74 | 6.49 | 7.31 | 7.07 | CN(NC(=O)c1cc2c(NC(=O)c3ccc(CN4CCNCC4)cc3)n[nH]c2s1)c1ccc(Cl)cc1 [Example 13b, N-{5-[N′-(4-chlorophenyl)-N′-methylhydrazinocarbonyl]-1H-thieno[2,3-c]pyrazol-3-yl}-4-piperazin-1-ylmethylbenzamide]
20 | 7.55 | 6.79 | 6.23 | 7.96 | COC[C@@H]1CCCN1NC(=O)c1cc2c(NC(=O)c3ccc(N4CCN(C)CC4)cc3)n[nH]c2s1 [Example 29, N-(2-methoxymethylpyrrolidin-1-yl)-3-[4-(4-methylpiperazin-1-yl)benzoylamino]-1H-thieno[2,3-c]pyrazole-5-carboxamide]
21 | 7.92 | 6.56 | 7.00 | 8.22 | CN(NC(=O)c1cc2c(NC(=O)c3ccc(OCCN4CCOCC4)cc3)n[nH]c2s1)c1ccccc1 [Example 46, N-[5-(N′-methyl-N′-phenylhydrazinocarbonyl)-1H-thieno[2,3-c]pyrazol-3-yl]-4-(2-morpholin-4-ylethoxy)benzamide]
22 | 6.03 | 5.70 | 6.52 | 6.22 | CN1CCN(Cc2cccc(C(=O)Nc3n[nH]c4sc(C(=O)NN(C)c5ccc(Cl)cc5)cc34)c2)CC1 [Example 16b, N-[5-(N′-(4-chlorophenyl)-N′-methylhydrazinocarbonyl)-1H-thieno[2,3-c]pyrazol-3-yl]-3-(4-methylpiperazin-1-ylmethyl)benzamide]

Reference: patent publication US7595320B2, “Hydrazinocarbonyl-thieno[2,3-C]pyrazoles, process for preparing them, compositions containing them and use thereof” (Aventis Pharma S.A., priority 2005, dated 2009)
